Results from ChEMBL document CHEMBL3352308, “Identification of constrained peptidomimetic chemotypes as HIV protease inhibitors” (Eur J Med Chem, 2014).
pIC50: −log10 of the molar value.

What was measured:
[1] = target: Protease (Human immunodeficiency virus 1) (UniProt Q9YQ12); test: Inhibition of HIV-1 protease using DABCYL-Abu-Ser-Gln-Asn-Tyr-Pro-Ile-Val-Gln-EDANS as substrate preincubated at 10 uM for 15 mins before substrate addition measured over 15 mins by fluorometric assay
[2] = target: Protease (Human immunodeficiency virus 1) (UniProt Q9YQ12); test: Inhibition of HIV-1 protease using DABCYL-Abu-Ser-Gln-Asn-Tyr-Pro-Ile-Val-Gln-EDANS as substrate preincubated at 1 uM for 15 mins before substrate addition measured over 15 mins by fluorometric assay
Protease = Protease (Human immunodeficiency virus 1, UniProt Q9YQ12); test: Inhibition of HIV-1 protease using DABCYL-Abu-Ser-Gln-Asn-Tyr-Pro-Ile-Val-Gln-EDANS as substrate preincubated for 15 mins before substrate addition measured over 15 mins by fluorometric assay
Sequence of Protease (Q9YQ12 whole entry): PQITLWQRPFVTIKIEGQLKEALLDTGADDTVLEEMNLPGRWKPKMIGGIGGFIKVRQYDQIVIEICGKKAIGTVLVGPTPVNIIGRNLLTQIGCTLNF

Sequence of Protease (Human immunodeficiency virus 1) (Q9YQ12 as listed by the source): as the sequence (Q9YQ12 whole entry) above

Work on `CCCC[C@@H](C(=O)OC)N1C[C@@H]2O[C@@H](C(=O)N3CCCCC3)[C@@H](O2)C1=O` yielded an inhibition [1] of 43%.

Compound `O=C1[C@@H]2O[C@H](CN1Cc1ccccc1)O[C@H]2C(=O)N1CCC[C@@H]1CO` has an inhibition [1] of 77%.

For `CCOC(=O)N1CCN(C(=O)[C@@H]2O[C@H]3CN(Cc4ccccc4)C(=O)[C@@H]2O3)CC1`, the inhibition [1] was 57%.

`O=C(NC1CCCCC1)[C@@H]1O[C@H]2CN(Cc3ccccc3)C(=O)[C@@H]1O2` showed an inhibition [1] of 34%.

For `CC(C)CC(=O)N[C@H](C(=O)N[C@H](C(=O)N[C@@H](CC(C)C)[C@@H](O)CC(=O)N[C@@H](C)C(=O)N[C@@H](CC(C)C)[C@@H](O)CC(=O)O)C(C)C)C(C)C`, the inhibition [2] was 56% and the inhibition [1] was 74%.

Compound `CC[C@H](C)[C@@H](C(=O)OC)N1C[C@@H]2O[C@@H](C(=O)N3CCCCC3)[C@@H](O2)C1=O` has an inhibition [1] of 30%.

Work on `O=C(NCCc1ccccc1)[C@@H]1O[C@H]2CN(Cc3ccccc3)C(=O)[C@@H]1O2` yielded an inhibition [1] of 31%.

`CC(C)C[C@H](C(=O)O)N1C[C@@H]2O[C@@H](C(=O)N3CCCCC3)[C@@H](O2)C1=O` was tested, and the inhibition [1] was 43%.

Compound `CC(C)C[C@@H](CO)NC(=O)[C@@H]1O[C@@H]2O[C@H]1C(=O)N(Cc1ccccc1)[C@@H]2Cc1ccccc1` has an inhibition [1] of 80%.

In the case of `O=C([C@@H]1O[C@H]2CN(Cc3ccccc3)C(=O)[C@@H]1O2)N1CCCCC1`, the inhibition [1] was 21%.

For `CC(C)C[C@@H](CO)NC(=O)[C@@H]1O[C@H]2CN(Cc3ccccc3)C(=O)[C@@H]1O2`, the inhibition [2] was 55%, the pIC50 (Protease) was 5.59 and the inhibition [1] was 82%.

`CCCCNC(=O)[C@@H]1O[C@@H]2O[C@H]1C(=O)N(Cc1ccccc1)[C@H]2Cc1ccccc1` showed an inhibition [2] of 33%, a pIC50 (Protease) of 5.12 and an inhibition [1] of 67%.

Work on `O=C([C@@H]1O[C@@]2(c3ccccc3)CN(C(c3ccccc3)c3ccccc3)C(=O)[C@@H]1O2)N1CCN(CCO)CC1` yielded an inhibition [1] of 71%.

Compound `CCCCNC(=O)[C@@H]1O[C@@]2(c3ccccc3)CN(C(c3ccccc3)c3ccccc3)C(=O)[C@@H]1O2` has an inhibition [1] of 66%.

Work on `O=C(NC1CCCCC1)[C@@H]1O[C@@H]2O[C@H]1C(=O)N(Cc1ccccc1)[C@H]2Cc1ccccc1` yielded an inhibition [2] of 69%, a pIC50 (Protease) of 5.72 and an inhibition [1] of 68%.

`O=C([C@@H]1O[C@@H]2O[C@H]1C(=O)N(Cc1ccccc1)[C@@H]2Cc1ccccc1)N1CCC[C@H]1CO` was tested, and the inhibition [1] was 58%.

`O=C([C@H]1O[C@@H]2CN(Cc3ccccc3)C(=O)[C@H]1O2)N1CCN(CCO)CC1` gave an inhibition [1] of 47%.

With `C#CCNC(=O)[C@@H]1O[C@@H]2O[C@H]1C(=O)N(Cc1ccccc1)[C@H]2Cc1ccccc1` the inhibition [2] was 60%, the pIC50 (Protease) was 6.15 and the inhibition [1] was 78%.

With `O=C([C@@H]1O[C@@H]2O[C@H]1C(=O)N(Cc1ccccc1)[C@H]2Cc1ccccc1)N1CCN(CCO)CC1` the inhibition [2] was 45%, the pIC50 (Protease) was 5.25 and the inhibition [1] was 75%.

For `CNCCNC(=O)[C@@H]1O[C@@]2(c3ccccc3)CN(C(c3ccccc3)c3ccccc3)C(=O)[C@@H]1O2`, the inhibition [1] was 33%.

Work on `O=C([C@@H]1O[C@@H]2O[C@H]1C(=O)N(Cc1ccccc1)[C@@H]2Cc1ccccc1)N1CCCCC1` yielded an inhibition [1] of 59%.

With `C[C@@H](CO)NC(=O)[C@@H]1O[C@@H]2O[C@H]1C(=O)N(Cc1ccccc1)[C@@H]2Cc1ccccc1` the inhibition [1] was 81%.

In the case of `CC(C)C[C@@H](C(=O)O)N1C[C@@H]2O[C@@H](C(=O)N3CCCCC3)[C@@H](O2)C1=O`, the inhibition [1] was 63%.

Compound `C[C@@H](CO)NC(=O)[C@@H]1O[C@H]2CN(Cc3ccccc3)C(=O)[C@@H]1O2` has an inhibition [2] of 54%, a pIC50 (Protease) of 5.82 and an inhibition [1] of 90%.

`CNCCNC(=O)[C@@H]1O[C@@H]2O[C@H]1C(=O)N(Cc1ccccc1)[C@H]2Cc1ccccc1` was tested, and the inhibition [1] was 49%.

Compound `CCCC[C@@H](C(=O)OC)N1C[C@H]2O[C@H](C(=O)N3CCCCC3)[C@H](O2)C1=O` has an inhibition [1] of 46%.

Compound `O=C([C@@H]1O[C@@H]2O[C@H]1C(=O)N(Cc1ccccc1)[C@@H]2Cc1ccccc1)N1CCOCC1` has an inhibition [1] of 17%.

`COC(=O)[C@H](CC(C)C)N1C[C@@H]2O[C@@H](C(=O)N3CCN(CCc4ccccc4)CC3)[C@@H](O2)C1=O` was tested, and the inhibition [1] was 70%.

Work on `CC(C)CCNC(=O)[C@@H]1O[C@@H]2O[C@H]1C(=O)N(Cc1ccccc1)[C@H]2Cc1ccccc1` yielded an inhibition [1] of 75%.

With `CCCNC(=O)[C@@H]1O[C@@H]2O[C@H]1C(=O)N(Cc1ccccc1)[C@H]2Cc1ccccc1` the inhibition [1] was 56%.

In the case of `COC(=O)[C@H](CC(C)C)N1C[C@@H]2O[C@@H](C(=O)N3CCN(Cc4ccccc4)CC3)[C@@H](O2)C1=O`, the inhibition [1] was 36%.

`O=C(NCCCO)[C@@H]1O[C@H]2CN(Cc3ccccc3)C(=O)[C@@H]1O2` was tested, and the inhibition [1] was 47%.

`COC(=O)[C@H](CC(C)C)N1C[C@@H]2O[C@@H](C(=O)N[C@H](CO)CC(C)C)[C@@H](O2)C1=O` gave an inhibition [1] of 57%.
